Assay results taken from paper PMC2682197, “Mycobacterium tuberculosis Universal Stress Protein Rv2623 Regulates Bacillary Growth by ATP-Binding: Requirement for Establishing Chronic Persistent Infection” (PLoS Pathogens, 2009).

Target: Rv2623 (Mycobacterium tuberculosis, UniProt P9WFD7)
Sequence (P9WFD7 whole entry): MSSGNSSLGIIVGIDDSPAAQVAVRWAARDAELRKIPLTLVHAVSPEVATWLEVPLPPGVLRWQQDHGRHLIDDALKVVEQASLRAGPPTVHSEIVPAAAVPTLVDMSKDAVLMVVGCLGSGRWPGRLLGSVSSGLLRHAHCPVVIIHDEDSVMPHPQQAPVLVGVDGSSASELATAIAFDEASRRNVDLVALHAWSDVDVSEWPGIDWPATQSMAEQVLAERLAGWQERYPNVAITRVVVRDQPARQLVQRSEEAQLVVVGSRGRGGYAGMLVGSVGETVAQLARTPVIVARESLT

For `Nc1ncnc2c1ncn2[C@@H]1O[C@H](COP(=O)(O)OP(=O)(O)O)[C@@H](O)[C@H]1O` [ADP], the “HPLC of nucleotide extracted from purified protein by boiling” value was “His6-Rv2623 co-purifies with both ATP and ADP”.
